Reference: ChEMBL document CHEMBL1128135, “Synthesis and biological evaluation of new arylthiophene analogs of DuP 753” (Bioorg Med Chem Lett, 1995)

Species: Oryctolagus cuniculus
Assay: In vitro antagonist activity was determined by the ability to antagonize the contractile response to angiotensin II in the isolated rabbit aortic strips
Format: functional
Conditions: Aorta
An IC50 of 120 nM was found for `CCCCc1nc(Cl)c(CO)n1Cc1ccc(-c2ccccc2C(=O)O)cc1` in this work.
An IC50 of 4160 nM was found for `CCCCc1nc(Cl)c(CO)n1Cc1ccc(-c2ccccc2C(=O)O)s1` in this work.
An IC50 of 6.1 nM was found for `CCCCc1nc(Cl)c(CO)n1Cc1ccc(-c2ccccc2-c2nnn[nH]2)cc1` [LOSARTAN] in this work.
An IC50 of 330 nM was found for `CCCCc1nc(Cl)c(C=O)n1Cc1ccc(-c2ccccc2-c2nn[nH]n2)s1` in this work.
An IC50 of 328 nM was found for `CCCCc1nc(Cl)c(CO)n1Cc1ccc(-c2ccccc2-c2nn[nH]n2)s1` in this work.
An IC50 of 2000 nM was found for `CCCCc1nc(Cl)c(C=O)n1Cc1ccc(-c2ccccc2C(=O)O)s1` in this work.
